Results: US8318769B2, “Substituted sulfonamide compounds” (Gruenethal GmbH, priority 2008, dated 2012)
Read-outs that look alike come from different tables or passages of the source.

Assays:
[1] = target: T1, human bradykinin 1 receptor (B1R) (Homo sapiens, UniProt P46663); experiment: FLIPR Ca2+ assay, B1R antagonism, human; assay type: cell-based
T1 construct: expressed in transfected cells
T1 sequence (P46663 1-353): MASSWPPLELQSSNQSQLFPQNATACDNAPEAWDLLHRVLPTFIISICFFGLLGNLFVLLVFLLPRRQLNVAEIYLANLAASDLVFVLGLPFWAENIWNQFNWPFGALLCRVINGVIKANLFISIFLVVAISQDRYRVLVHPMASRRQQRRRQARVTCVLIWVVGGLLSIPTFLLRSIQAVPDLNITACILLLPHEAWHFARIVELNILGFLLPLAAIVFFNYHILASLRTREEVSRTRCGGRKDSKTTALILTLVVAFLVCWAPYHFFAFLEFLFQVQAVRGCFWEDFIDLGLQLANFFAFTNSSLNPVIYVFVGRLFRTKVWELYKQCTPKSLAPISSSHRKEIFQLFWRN
Method: (§1) The agonistic or antagonistic action of substances can be quantified on the bradykinin 1 receptor (B1R) of the human and rat species with ectopically expressing cell lines (CHO K1 cells) and with the aid of a Ca^2+-sensitive dyestuff (Fluo-4) in a fluorescent imaging plate reader (FLIPR). The figure in % activation is based on the Ca^2+ signal after addition of Lys-Des-Arg^9-bradykinin (0.5 nM) or Des-Arg^9-bradykinin (100 nM). Antagonists lead to a suppression of the Ca^2+ inflow after addition of the agonist. % inhibition compared with the maximum achievable inhibition is stated.
(§2) The agonistic or antagonistic action of substances can be determined on the bradykinin 1 receptor (B1R) of the human and rat species with the following assay. In accordance with this assay, the Ca^2+ inflow through the channel is quantified with the aid of a Ca^2+-sensitive dyestuff (type Fluo-4, Molecular Probes Europe BV, Leiden, Holland) in a fluorescent imaging plate reader (FLIPR, Molecular Devices, Sunnyvale, USA).
(§3) Chinese hamster ovary cells (CHO K1 cells) transfected stably with the human B1R gene (hB1R cells) or the B1R gene of the rat (rB1R cells) are used. For functional studies, these cells are plated out on black 96-well plates with a clear base (BD Biosciences, Heidelberg, Germany or Greiner, Frickenhausen, Germany) in a density of 20,000-35,000 cells/well. The cells are left overnight at 37° C. and 5% CO2 in culture medium (hB1R cells: Nutrient Mixture Ham's F12, Gibco Invitrogen GmbH, Karlsruhe, Germany or DMEM, Sigma-Aldrich, Taufkirchen, Germany; rB1R cells: D-MEM/F12, Gibco Invitrogen GmbH, Karlsruhe, Germany) with 10 vol. % FBS (foetal bovine serum, Gibco Invitrogen GmbH, Karlsruhe, Germany or PAN Biotech GmbH, Aidenbach, Germany).
(§4) On the following day, the cells are loaded for 60 min at 37° C. with 2.13 μM Fluo-4 (Molecular Probes Europe BV, Leiden, Holland) in HBSS buffer (Hank's buffered saline solution, Gibco Invitrogen GmbH, Karlsruhe, Germany) with 2.5 mM probenecid (Sigma-Aldrich, Taufkirchen, Germany) and 10 mM HEPES (Sigma-Aldrich, Taufkirchen, Germany). The plates are then washed 2× with HBSS buffer, and HBSS buffer which additionally contains 0.1% BSA (bovine serum albumin; Sigma-Aldrich, Taufkirchen, Germany), 5.6 mM glucose and 0.05% gelatine (Merck KGaA, Darmstadt, Germany) is added. After a further incubation of 20 minutes at room temperature, the plates are inserted into the FLIPR for the Ca^2+ measurement.
(§5) Alternatively, the plates are washed with buffer A (15 mM HEPES, 80 mM NaCl, 5 mM KCl, 1.2 mM CaCl2, 0.7 mM MgSO4, 2 g/l glucose, 2.5 mM probenecid), buffer A is added and the plates are loaded with 2.5 μM Fluo-4 and 0.025% Pluronic F127 (Sigma-Aldrich, Taufkirchen, Germany). Thereafter, the cells are washed 2× with buffer A and incubated for 30 minutes with buffer A, which additionally contains 0.05% BSA and 0.05% gelatine, at room temperature and thereafter inserted into the FLIPR for the Ca^2+ measurement.
(§6) The Ca^2+-dependent fluorescence is measured here before and after addition of substances (λex=488 nm, λem=540 nm). Quantification is by measurement of the highest fluorescence intensity (FC, fluorescence counts) over time.
(§7) The FLIPR protocol consists of 2 additions of substance. Test substances (10 μM) are first pipetted on to the cells and the Ca^2+ inflow is compared with the control (hB1R: Lys-Des-Arg^9-bradykinin >=50 nM; rB1R: Des-Arg^9-bradykinin 10 μM). This gives the figure in % activation based on the Ca^2+ signal after addition of Lys-Des-Arg^9-bradykinin (>=50 nM) or Des-Arg^9-bradykinin (10 μM).
(§8) After incubation for 10-20 minutes, Lys-Des-Arg^9-bradykinin (hB1R) or Des-Arg^9-bradykinin (rB1R) in the concentration of the EC80 is applied and the inflow of Ca^2+ is likewise determined. Antagonists lead to a suppression of the Ca^2+ inflow. % inhibition compared with the maximum achievable inhibition is calculated. […]

[2] = target: T2, bradykinin 1 receptor (B1R) of the rat (Rattus norvegicus, UniProt P97583); experiment: FLIPR Ca2+ assay, B1R antagonism, rat; assay type: cell-based; conditions: for B1R antagonism, rat [10 μM] % inhibition: 10 μM test substance
T2 construct: expressed in transfected cells
T2 sequence (P97583 1-337): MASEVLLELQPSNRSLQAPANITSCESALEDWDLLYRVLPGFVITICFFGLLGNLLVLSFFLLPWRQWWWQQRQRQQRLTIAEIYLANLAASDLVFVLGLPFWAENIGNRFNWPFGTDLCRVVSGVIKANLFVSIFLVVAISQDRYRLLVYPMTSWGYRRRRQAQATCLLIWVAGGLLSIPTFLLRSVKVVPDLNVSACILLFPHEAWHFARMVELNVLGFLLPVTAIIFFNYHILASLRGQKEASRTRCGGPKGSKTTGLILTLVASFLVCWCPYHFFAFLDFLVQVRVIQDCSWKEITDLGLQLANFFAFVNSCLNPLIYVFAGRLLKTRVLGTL
Method: as §1, §2, §3, §4, §5, §6, §7, §8

[3] = 10 μM test substance, CHO K1 cells with human B1R gene (hB1R cells), Lys-Des-Arg9-bradykinin at EC80, % inhibition compared with the maximum achievable inhibition
[4] = 10 μM test substance, CHO K1 cells with human B1R gene (hB1R cells), Lys-Des-Arg9-bradykinin at EC80, % inhibition compared with the maximum achievable inhibition, read-out: B1R antagonism, human [10 μM] % inhibition
[5] = CHO-K1, 10 μM test substance, CHO K1 cells with rat B1R gene (rB1R cells), Des-Arg9-bradykinin at EC80, % inhibition compared with the maximum achievable inhibition, read-out: B1R antagonism, rat [10 μM] % inhibition
[6] = CHO-K1, read-out: B1R antagonism, rat [10 μM] % inhibition
[7] = CHO K1 cells with rat B1R gene (rB1R cells), Des-Arg9-bradykinin at EC80, % inhibition compared with the maximum achievable inhibition, 10 µM

With “3-[[1-[(4-methoxy-2,6-dimethyl-phenyl)sulfonyl]-piperidin-2-yl]-methoxy]-1-[4-pyridin-3-yl-4-(2-pyrrolidin-1-yl-ethoxy)-piperidin-1-yl]-propan-1-one [Example 120]” the “B1R antagonism, human [10 μM] % inhibition” value [1, 3] was 100% and the “B1R antagonism, rat [10 μM] % inhibition” value ([2]; CHO K1 cells with rat B1R gene (rB1R cells), Des-Arg9-bradykinin at EC80, % inhibition compared with the maximum achievable inhibition) was 103%.

COc1cc(C)c(S(=O)(=O)N2c3ccccc3CC[C@H]2COCC(=O)N2CCC(OCCN3CCCC3)(c3cccnc3)CC2)c(C)c1 [Example 1, (S)-2-((1-(4-methoxy-2,6-dimethylphenylsulfonyl)-1,2,3,4-tetrahydroquinolin-2-yl)methoxy)-1-(4-(pyridin-3-yl)-4-(2-(pyrrolidin-1-yl)ethoxy)piperidin-1-yl)ethanone] showed an inhibition at 10 µM [1, 4] of 99% and an inhibition at 10 µM [2, 5] of 100%.

COc1cc(C)c(S(=O)(=O)N2CCCCC2CCCC(=O)N2CCC(OCCN3CCCC3)(c3cccnc3)CC2)c(C)c1 (stereo not drawn) [Example 2, 4-(1-(4-methoxy-2,6-dimethylphenylsulfonyl)piperidin-2-yl)-1-(4-(pyridin-3-yl)-4-(2-(pyrrolidin-1-yl)ethoxy)piperidin-1-yl)butan-1-one] was tested, and the “B1R antagonism, human [10 μM] % inhibition” value ([1]; 10 μM test substance, CHO K1 cells with human B1R gene (hB1R cells), Lys-Des-Arg9-bradykinin at EC80, % inhibition compared with the maximum achievable inhibition, 10 µM) was 97% and the inhibition at 10 µM [2, 6] was 99%.

COc1cc(C)c(S(=O)(=O)N(CCOCC(=O)N2CCC(OCCN3CCCC3)(c3cccnc3)CC2)C2CC2)c(C)c1 [Example 3, N-cyclopropyl-4-methoxy-2,6-dimethyl-N-(2-(2-oxo-2-(4-(pyridin-3-yl)-4-(2-(pyrrolidin-1-yl)ethoxy)piperidin-1-yl)ethoxy)ethyl)benzenesulfonamide] gave an inhibition at 10 µM [1, 4] of 100% and an inhibition at 10 µM [2, 5] of 101%.

Compound O=C(COCCN(C(c1ccccc1)c1ccccc1)S(=O)(=O)c1ccc(Cl)cc1Cl)N1CCC(OCCN2CCCC2)(c2cccnc2)CC1 [Example 4, N-benzhydryl-2,4-dichloro-N-(2-(2-oxo-2-(4-(pyridin-3-yl)-4-(2-(pyrrolidin-1-yl)ethoxy)piperidin-1-yl)ethoxy)ethyl)benzenesulfonamide] has an inhibition at 10 µM ([1]; CHO-K1, read-out: B1R antagonism, human [10 μM] % inhibition) of 99% and an inhibition at 10 µM [2, 6] of 98%.

For COc1cc(C)c(S(=O)(=O)N2CCCCC2CCCC(=O)N2CCC(OCCN3CCCC3)(c3cccnc3)CC2)c(C)c1 (stereo not drawn) [Example 88, 4-[1-[(4-methoxy-2,6-dimethyl-phenyl)sulfonyl]-piperidin-2-yl]-1-[4-pyridin-3-yl-4-(2-pyrrolidin-1-yl-ethoxy)-piperidin-1-yl]-butan-1-one], the “B1R antagonism, human [10 μM] % inhibition” value [1, 3] was 100%.

With COc1cc(C)c(S(=O)(=O)N2CCCCC2CCOCC(=O)N2CCC(OCCN3CCCC3)(c3cccc(F)c3)CC2)c(C)c1 (stereo not drawn) [Example 125, 1-[4-(3-fluorophenyl)-4-(2-pyrrolidin-1-yl-ethoxy)-piperidin-1-yl]-2-[2-[1-[(4-methoxy-2,6-dimethyl-phenyl)sulfonyl]-piperidin-2-yl]-ethoxy]-ethanone] the inhibition at 10 µM [2, 5] was 99%.

In the case of COc1cc(C)c(S(=O)(=O)N2CCCCC2CCOCC(=O)N2CCC(OCCN3CCCC3)(c3cccc(F)c3)CC2)c(C)c1 (stereo not drawn) [Example 126, 1-[4-(3-fluorophenyl)-4-(2-pyrrolidin-1-yl-ethoxy)-piperidin-1-yl]-2-[2-[1-[(4-methoxy-2,6-dimethyl-phenyl)sulfonyl]-piperidin-2-yl]-ethoxy]-ethanone], the “B1R antagonism, rat [10 μM] % inhibition” value [2, 7] is reported as 98%.

Work on CN(CCCC(=O)N1CCC(OCCN2CCCC2)(c2cccc(F)c2)CC1)S(=O)(=O)c1cccc(C(F)(F)F)c1 [Example 127, N-[4-[4-(3-fluorophenyl)-4-(2-pyrrolidin-1-yl-ethoxy)-piperidin-1-yl]-4-oxo-butyl]-N-methyl-3-(trifluoromethyl)-benzenesulfonic acid amide] yielded an inhibition at 10 µM [2, 5] of 49%.

With O=C(CC1COc2ccccc2N1S(=O)(=O)c1ccc(Cl)cc1Cl)N1CCC(OCCN2CCCC2)(c2cccc(F)c2)CC1 (stereo not drawn) [Example 128, 2-[4-[(2,4-dichlorophenyl)sulfonyl]-3,4-dihydro-2H-[1,4]benzoxazin-3-yl]-1-[4-(3-fluorophenyl)-4-(2-pyrrolidin-1-yl-ethoxy)-piperidin-1-yl]-ethanone] the inhibition at 10 µM [2, 5] was 41%.

With O=C(COCC1CCc2ccccc2N1S(=O)(=O)c1ccc2ccccc2c1)N1CCC(OCCN2CCCC2)(c2cccnc2)CC1 (stereo not drawn) [Example 129, 2-[[1-(naphthalen-2-ylsulfonyl)-1,2,3,4-tetrahydro-quinolin-2-yl]-methoxy]-1-[4-pyridin-3-yl-4-(2-pyrrolidin-1-yl-ethoxy)-piperidin-1-yl]-ethanone] the inhibition at 10 µM [2, 5] was 92%.

O=C(COCC1CCc2ccccc2N1S(=O)(=O)c1ccc2ccccc2c1)N1CCC(OCCN2CCCC2)(c2cccnc2)CC1 (stereo not drawn) [Example 130, 2-[[1-(naphthalen-2-ylsulfonyl)-1,2,3,4-tetrahydro-quinolin-2-yl]-methoxy]-1-[4-pyridin-3-yl-4-(2-pyrrolidin-1-yl-ethoxy)-piperidin-1-yl]-ethanone] was tested, and the “B1R antagonism, rat [10 μM] % inhibition” value [2, 7] was 83%.

With O=C(COCC1CCc2ccccc2N1S(=O)(=O)c1ccc2ccccc2c1)N1CCC(OCCN2CCCC2)(c2cccc(F)c2)CC1 (stereo not drawn) [Example 131, 1-[4-(3-fluorophenyl)-4-(2-pyrrolidin-1-yl-ethoxy)-piperidin-1-yl]-2-[[1-(naphthalen-2-ylsulfonyl)-1,2,3,4-tetrahydro-quinolin-2-yl]-methoxy]-ethanone] the inhibition at 10 µM [2, 5] was 44%.
